Drawing on patent US20150291598A1 (NOVARTIS AG, priority 2012, published 2015), this text covers EC50 for 34 compounds.

The assay concerns P. falciparum (NF54 or 3D7 strain). The experiment in a line: Assay for P. falciparum proliferation in infected human blood cells (SYBR Green). It counts as cell-based, Plasmodium falciparum. The note with it: Plasmodium falciparum, Erythrocyte, 72 h, NF54 or 3D7 infected human erythrocytes, 72 hours; read-out: EC50 (nM), inhibitory efficacy in delaying P. falciparum proliferation in infected human blood cells. Summed up: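 NF54 or 3D7 parasites in O+ human erythrocytes at 2.5% hematocrit and 0.3% parasitemia final, exposed to compounds 72 h at 37 °C under 93% N2/4% CO2/3% O2.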

In the case of `NC(=O)c1ccc(-c2cn3c(-c4ccc(C(N)=O)cc4)cnc3cn2)cc1` [Compound 210, 4-[3-(4-carbamoylphenyl)imidazo[1,2-a]pyrazin-6-yl]benzamide], the EC50 came to 1980 nM.

In the case of `CN(C(=O)c1cn2c(-c3cnc(N4CCCC4=O)cn3)cnc2cn1)c1ccc(C#N)cc1` [Compound 211, N-(4-cyanophenyl)-N-methyl-3-[5-(2-oxopyrrolidin-1-yl)pyrazin-2-yl]imidazo[1,2-a]pyrazine-6-carboxamide], the EC50 amounted to 9390 nM.

Turning to `CN(C(=O)c1cn2c(-c3ccc(NC(=O)[C@@H](N)C4CCCCC4)cc3)cnc2cn1)c1ccc(C#N)cc1` [Compound 212, 3-{4-[(2S)-2-amino-2-cyclohexylacetamido]phenyl}-N-(4-cyanophenyl)-N-methylimidazo[1,2-a]pyrazine-6-carboxamide], the EC50 was 137 nM.

In the case of `CN(C(=O)c1cn2c(-c3ccc(OC(F)F)cc3)cnc2cn1)c1ccc(C#N)cc1` [Compound 214, N-(4-cyanophenyl)-3-[4-(difluoromethoxy)phenyl]-N-methylimidazo[1,2-a]pyrazine-6-carboxamide], the EC50 was 31 nM.

Consider `CN(C(=O)c1cn2c(-c3ccc(C(F)(F)F)cc3)cnc2cn1)c1ccc(Br)cc1` [Compound 215, N-(4-bromophenyl)-N-methyl-3-[4-(trifluoromethyl)phenyl]imidazo[1,2-a]pyrazine-6-carboxamide], for which the EC50 amounted to 86 nM.

Regarding `CN(C(=O)c1cn2c(-c3ccc(N4CCCCC4)cc3)cnc2cn1)c1ccc(Cl)nc1` [Compound 216, N-(6-chloropyridin-3-yl)-N-methyl-3-[4-(piperidin-1-yl)phenyl]imidazo[1,2-a]pyrazine-6-carboxamide], the EC50 was found to be 5710 nM.

Regarding `CN(C(=O)c1cn2c(-c3ccc(C(F)(F)F)cc3)cnc2cn1)c1ccc(Cl)cc1` [Compound 217, N-(4-chlorophenyl)-N-methyl-3-[4-(trifluoromethyl)phenyl]imidazo[1,2-a]pyrazine-6-carboxamide], the EC50 is 36 nM.

Turning to `O=C(c1cn2c(-c3ccc(C(F)(F)F)cc3)cnc2cn1)N1CCCc2cc(Cl)ccc21` [Compound 218, 6-chloro-1-({3-[4-(trifluoromethyl)phenyl]imidazo[1,2-a]pyrazin-6-yl}carbonyl)-1,2,3,4-tetrahydroquinoline], the EC50 is 680 nM.

Take `COc1ccc(-c2cnc3cnc(C(=O)N(C)c4ccc(Cl)cc4)cn23)cc1` [Compound 219, N-(4-chlorophenyl)-3-(4-methoxyphenyl)-N-methylimidazo[1,2-a]pyrazine-6-carboxamide]: the EC50 came out at 63 nM.

`Cc1cnc(Cl)c(N(C)C(=O)c2cn3c(-c4ccc(C(F)(F)F)cc4)cnc3cn2)c1` [Compound 220, N-(2-chloro-5-methylpyridin-3-yl)-N-methyl-3-[4-(trifluoromethyl)phenyl]imidazo[1,2-a]pyrazine-6-carboxamide]: the EC50 was 4040 nM.

Take `CN(C(=O)c1cn2c(-c3ccc(C(F)(F)F)cc3)cnc2cn1)c1ncccc1F` [Compound 221, N-(3-fluoropyridin-2-yl)-N-methyl-3-[4-(trifluoromethyl)phenyl]imidazo[1,2-a]pyrazine-6-carboxamide]: the EC50 was determined as 4970 nM.

For the compound `CN(C(=O)c1cn2c(-c3ccc(-c4ccn[nH]4)cc3)cnc2cn1)c1ccc(Cl)nc1` [Compound 224, N-(6-chloropyridin-3-yl)-N-methyl-3-[4-(1H-pyrazol-5-yl)phenyl]imidazo[1,2-a]pyrazine-6-carboxamide], the EC50 came to 149 nM.

For `COC(=O)Nc1ccc(-c2cnc3cnc(CN(C)c4ccc(C#N)cc4)cn23)cc1` [Compound 225, methyl N-[4-(6-{[(4-cyanophenyl)(methyl)amino]methyl}imidazo[1,2-a]pyrazin-3-yl)phenyl]carbamat], the EC50 stood at 37 nM.

Take `CC(=O)Nc1ccc(-c2cnc3cnc(CN(C)c4ccc(C#N)cc4)cn23)cn1` [Compound 226, N-[5-(6-{[(4-cyanophenyl)(methyl)amino]methyl}imidazo[1,2-a]pyrazin-3-yl)pyridin-2-yl]acetamide]: the EC50 came out at 37 nM.

For the compound `CN(C(=O)c1cn2c(-c3ccc(-c4nnc(N)o4)cc3)cnc2cn1)c1ccc(F)cc1` [Compound 227, 3-[4-(5-amino-1,3,4-oxadiazol-2-yl)phenyl]-N-(4-fluorophenyl)-N-methylimidazo[1,2-a]pyrazine-6-carboxamide], the EC50 amounted to 40 nM.

Consider `CC1(C)CCc2cc(F)ccc2N1C(=O)c1cn2c(-c3ccc(C(N)=O)cc3)cnc2cn1` [Compound 229, 4-{6-[(6-fluoro-2,2-dimethyl-1,2,3,4-tetrahydroquinolin-1-yl)carbonyl]imidazo[1,2-a]pyrazin-3-yl}benzamide], for which the EC50 was 19 nM.

For the compound `CC1(C)CCc2cc(F)ccc2N1C(=O)c1cn2c(-c3ccc(C(F)(F)F)cc3)cnc2cn1` [Compound 230, 6-fluoro-2,2-dimethyl-1-({3-[4-(trifluoromethyl)phenyl]imidazo[1,2-a]pyrazin-6-yl}carbonyl)-1,2,3,4-tetrahydroquinoline], the EC50 worked out at 21 nM.

On to `CN(Cc1cn2c(-c3ccc(C(F)(F)F)cc3)cnc2cn1)c1ccc(Cl)nc1` [Compound 231, 6-chloro-N-methyl-N-({3-[4-(trifluoromethyl)phenyl]imidazo[1,2-a]pyrazin-6-yl}methyl)pyridin-3-amine], for which the EC50 worked out at 74 nM.

For `CN(C(=O)c1cn2c(-c3ccc(C#N)cc3)cnc2cn1)c1ccc(S(C)(=O)=O)cc1` [Compound 232, 3-(4-cyanophenyl)-N-(4-methanesulfonylphenyl)-N-methylimidazo[1,2-a]pyrazine-6-carboxamide], the EC50 is 3990 nM.

On to `Cc1ccc(N(C)Cc2cn3c(-c4ccc(C(N)=O)cc4)cnc3cn2)nc1` [Compound 233, 4-(6-{[methyl(5-methylpyridin-2-yl)amino]methyl}imidazo[1,2-a]pyrazin-3-yl)benzamide], for which the EC50 turned out to be 138 nM.

In the case of `Fc1ccc2c(c1)CCCN2Cc1cn2c(-c3ccc(C(F)(F)F)cc3)cnc2cn1` [Compound 234, 6-fluoro-1-({3-[4-(trifluoromethyl)phenyl]imidazo[1,2-a]pyrazin-6-yl}methyl)-1,2,3,4-tetrahydroquinoline], the EC50 is 148 nM.

On to `CN(C(=O)c1cn2c(-c3ccc(C(C)(F)F)cc3)cnc2cn1)c1ccc(Cl)nc1` [Compound 237, N-(6-chloropyridin-3-yl)-3-[4-(1,1-difluoroethyl)phenyl]-N-methylimidazo[1,2-a]pyrazine-6-carboxamide], for which the EC50 was 100 nM.

With `COCCN(C(=O)c1cn2c(-c3ccc(C(F)(F)F)cc3)cnc2cn1)c1ccc(C#N)cc1` [Compound 238, N-(4-cyanophenyl)-N-(2-methoxyethyl)-3-[4-(trifluoromethyl)phenyl]imidazo[1,2-a]pyrazine-6-carboxamide], the EC50 is 152 nM.

In the case of `CN(C(=O)c1cn2c(-c3ccc(C(F)(F)F)cc3)cnc2cn1)c1ccc(C(F)(F)F)nc1` [Compound 239, N-methyl-3-[4-(trifluoromethyl)phenyl]-N-[6-(trifluoromethyl)pyridin-3-yl]imidazo[1,2-a]pyrazine-6-carboxamide], the EC50 is 6880 nM.

`CN(C(=O)c1cn2c(-c3ccc(-c4nnco4)cc3)cnc2cn1)c1ccc(C#N)cc1` [Compound 240, N-(4-cyanophenyl)-N-methyl-3-[4-(1,3,4-oxadiazol-2-yl)phenyl]imidazo[1,2-a]pyrazine-6-carboxamide]: the EC50 worked out at 112 nM.

Consider `Cc1ccc(N(C)Cc2cn3c(-c4ccc(C(F)F)cc4)cnc3cn2)nc1` [Compound 241, N-({3-[4-(difluoromethyl)phenyl]imidazo[1,2-a]pyrazin-6-yl}methyl)-N,5-dimethylpyridin-2-amine], for which the EC50 stood at 262 nM.

Turning to `CC(=O)Nc1ccc(-c2cnc3cnc(CN(C)c4ccc(C)cn4)cn23)cn1` [Compound 242, N-[5-(6-{[methyl(5-methylpyridin-2-yl)amino]methyl}imidazo[1,2-a]pyrazin-3-yl)pyridin-2-yl]acetamide], the EC50 came out at 215 nM.

`CN(C(=O)c1cn2c(-c3cnc4[nH]ccc4c3)cnc2cn1)c1ccc(C#N)cc1` [Compound 243, N-(4-cyanophenyl)-N-methyl-3-{1H-pyrrolo[2,3-b]pyridin-5-yl}imidazo[1,2-a]pyrazine-6-carboxamide]: the EC50 stood at 98 nM.

`CNC(=O)c1ccc(-c2cnc3cnc(C(=O)N(C)c4ccc(F)cc4)cn23)cc1` [Compound 244, N-(4-fluorophenyl)-N-methyl-3-[4-(methylcarbamoyl)phenyl]imidazo[1,2-a]pyrazine-6-carboxamide]: the EC50 was determined as 290 nM.

Take `COC(=O)Nc1ccc(-c2cnc3cnc(C(=O)N(C)c4ccc(Cl)nc4)cn23)cc1` [Compound 245, methyl N-(4-{6-[(6-chloropyridin-3-yl)(methyl)carbamoyl]imidazo[1,2-a]pyrazin-3-yl}phenyl)carbamate]: the EC50 worked out at 226 nM.

For the compound `CNc1ccc(-c2cnc3cnc(C(=O)N(C)c4ccc(C#N)cc4)cn23)cn1` [Compound 246, N-(4-cyanophenyl)-N-methyl-3-[6-(methylamino)pyridin-3-yl]imidazo[1,2-a]pyrazine-6-carboxamide], the EC50 came to 310 nM.

Regarding `CN(C(=O)c1cn2c(-c3ccc(NC(=O)CN)cc3)cnc2cn1)c1ccc(C#N)cc1` [Compound 247, 3-[4-(2-aminoacetamido)phenyl]-N-(4-cyanophenyl)-N-methylimidazo[1,2-a]pyrazine-6-carboxamide], the EC50 was found to be 611 nM.

`CN(C(=O)c1cn2c(-c3ccc(-c4nnc(N)o4)cc3)cnc2cn1)c1ccc(C#N)cc1` [Compound 248, 3-[4-(5-amino-1,3,4-oxadiazol-2-yl)phenyl]-N-(4-cyanophenyl)-N-methylimidazo[1,2-a]pyrazine-6-carboxamide]: the EC50 is 87 nM.

Turning to `CN(C(=O)c1cn2c(-c3ccc(C(F)(F)F)cc3)cnc2cn1)c1ccncc1` [Compound 249, N-methyl-N-(pyridin-4-yl)-3-[4-(trifluoromethyl)phenyl]imidazo[1,2-a]pyrazine-6-carboxamide], the EC50 worked out at 635 nM.
